Consider 49 sequences from PMC9928118, “Funneling modulatory peptide design with generative models: Discovery and characterization of disruptors of calcineurin protein-protein interactions” (PLOS Computational Biology, 2023).

For assay [1], the system named is GST-tagged Cn. Kind of assay: PEPperPRINT peptide microarray binding assay with GST-tagged Cn. In short, it runs like this:
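Qualitative binding: peptides printed on a PEPperPRINT microarray were incubated overnight at 4 °C with 1 mg/ml GST-tagged Cn, then detected with Alexa-Fluor 647 anti-GST antibody. Log fluorescence was baseline-corrected, averaged over duplicate spots, Z-normalized and averaged across five repeats.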

Assay [2] concerns GST-tagged Cn. Described as above. The conditions noted are these: max over the duplicate spots (Location on chip).
The mark [3] stands for this setting: GST-tagged Cn, mean over the duplicate spots (Location on chip).
Setting [4] is: max over the spots listed under Location on chip.
Setting [5] is: mean over the spots listed under Location on chip.
[6] abbreviates: max over the chip locations listed for the peptide (two spots).
[7] abbreviates: mean over the chip locations listed for the peptide (two spots).
The mark [8] stands for this setting: GST-tagged Cn, max over the spots on the chip (two locations).
Where [9] appears, read: GST-tagged Cn, mean over the spots on the chip (two locations).

In the case of RFYINPFVQFSDGGNN [SeqRBM_1053], the “Chip Fluorescence (mean)” value in assay [1] (setting [3]) was -0.5027. Besides, the “Chip Fluorescence (max)” value in assay [2] is on record as 2.558.
The matching figures for TFWTNPQYVITLPEED [SeqRBMlowT_4660]: 0.3942 and 1.913.
Taken in the same sequence, the figures for ADEATPSIVVHVCELP [SeqRBMlowT_118] were 0.5506 and 2.544.
Taken in the same sequence, the figures for SSLYENALGIESFTLS [SeqRBMlowT_2888] were 0.9732 and 2.496.
Take TFWTNPQFRVHLEDED [SeqRBMlowT_4265]: the “Chip Fluorescence (mean)” value in assay [1] (setting [3]) worked out at 1.067. Moreover, the “Chip Fluorescence (max)” value in assay [2] was 1.93.
Take LMDLCPVVRLQIISAL [SeqRBM_7616]: the “Chip Fluorescence (mean)” value in assay [1] (setting [3]) is reported as 0.2546. Also, in assay [2], the “Chip Fluorescence (max)” value is given as 2.223.
Taken in the same sequence, the figures for AEVGIVRFSRHPVAQD [Seqshuffled_9961] were 0.06577 and 2.2.
With GAYMCPFMSWQDCGQR [SeqRBMlowT_4796], the “Chip Fluorescence (mean)” value in assay [1] (setting [3]) is recorded as 0.4498. For the same sequence, in assay [2], the “Chip Fluorescence (max)” value was determined as 2.042.
On to PMKTRGLYGWPPCAKW [Seqrandom_5226], for which the “Chip Fluorescence (mean)” value in assay [1] (setting [3]) was determined as 0.996. The “Chip Fluorescence (max)” value in assay [2] stood at 2.284.
Taken in the same sequence, the figures for TFWTNPQFRIKLEDED [SeqRBMlowT_645] were 1.091 and 2.265.
GSLLIPHCDMSAGGSY [SeqRBM_2528]: the “Chip Fluorescence (mean)” value in assay [1] (setting [3]) is reported as -0.05077. Moreover, the “Chip Fluorescence (max)” value in assay [2] is 2.002.
Taken in the same sequence, the figures for PSHSIPKHSWESAVEH [SeqRBM_3394] were -0.5716 and 2.053.
In the case of RNPESPVLELEGHSSP [SeqRBMlowT_6390], the “Chip Fluorescence (mean)” value in assay [1] (setting [3]) was 1.113. For the same sequence, the “Chip Fluorescence (max)” value in assay [2] is 2.243.
The matching figures for PNGSNPETVIKPDWTE [SeqRBM_275]: 0.6822 and 1.983.
LSLYVNALGMESFTIS [SeqRBM_9141]: the “Chip Fluorescence (mean)” value in assay [1] (setting [3]) was 0.3343. Besides, in assay [2], the “Chip Fluorescence (max)” value turned out to be 2.172.
For FTMKFAWALPQCYVHC [Seqrandom_9941], the “Chip Fluorescence (mean)” value in assay [1] (setting [3]) came out at 0.4694. Besides, in assay [2], the “Chip Fluorescence (max)” value is recorded as 2.049.
Taken in the same sequence, the figures for KKMSPPCISVHPPDED [SeqRBMlowT_7695] were 0.511 and 2.045.
The matching figures for WPWCRHPKKRNWLNWH [Seqrandom_9939]: 1.3152 and 2.4643.
Taken in the same sequence, the figures for HVSSSPDVTLKPPQHR [SeqRBMlowT_2147] were 0.4725 and 2.217.
Turning to PSLYENALGMESFTIS [SeqRBMlowT_2807], the “Chip Fluorescence (mean)” value in assay [1] (setting [3]) is -0.3855. Besides, in assay [2], the “Chip Fluorescence (max)” value came out at 2.474.
Regarding ASEANPEITVTPAELP [SeqRBMlowT_1250], the “Chip Fluorescence (mean)” value in assay [1] (setting [3]) was -0.04845. In addition, the “Chip Fluorescence (max)” value in assay [2] worked out at 2.513.
The matching figures for TFWTNPQYRLKLEEPD [SeqRBMlowT_264]: 0.9748 and 2.584.
Turning to VEALSSRYGMATNLTG [Seqshuffled_4257], the “Chip Fluorescence (mean)” value in assay [1] (setting [3]) is given as 0.2313. The “Chip Fluorescence (max)” value in assay [2] is reported as 2.043.
With RTYINPFMLFEDMGSR [SeqRBM_7588], in assay [1] (setting [3]), the “Chip Fluorescence (mean)” value was 0.1039. For the same sequence, in assay [2], the “Chip Fluorescence (max)” value came out at 2.523.
Taken in the same sequence, the figures for PSIYQEVLGIGNFSLS [SeqRBMlowT_4899] were 0.7614 and 2.16.
Taken in the same sequence, the figures for PTNGIPEMQRNSAKSA [Seqshuffled_9538] were 0.992 and 2.2337.
The matching figures for TFWANPQITITLAELD [SeqRBMlowT_7358]: 0.7622 and 2.261.
In the case of RNPESPVLELEGHSAS [SeqRBMlowT_6180], in assay [1] (setting [3]), the “Chip Fluorescence (mean)” value turned out to be 0.5231. Also, the “Chip Fluorescence (max)” value in assay [2] is given as 1.97.
Taken in the same sequence, the figures for RAYKNPFMQFDLDSSL [SeqRBM_8076] were 1.346 and 2.512.
Taken in the same sequence, the figures for KAYMCPYGSFTYGGRR [SeqRBM_3412] were 0.9697 and 2.568.
With ADEAVPLIDIAMAEYP [SeqRBM_3950], the “Chip Fluorescence (mean)” value in assay [1] (setting [3]) was found to be 0.7456. In addition, in assay [2], the “Chip Fluorescence (max)” value is given as 2.42.
Taken in the same sequence, the figures for GGPGTPSRQGQTAAPS [SeqRBM_5534] were -0.2851 and 2.523.
The matching figures for KELANLRVTPPDNGTL [SeqRBM_2710]: 0.2344 and 2.355.
TFWTNPQYKITLEDPD [SeqRBMlowT_219]: the “Chip Fluorescence (mean)” value in assay [1] (setting [3]) is recorded as 1.018. In assay [2], the “Chip Fluorescence (max)” value came out at 2.355.
The matching figures for TFWTNPQFVVSLPEED [SeqRBMlowT_8537]: -0.2871 and 2.16.
As to HCRFEWPFGFSMIRYP [Seqrandom_9994], the “Chip Fluorescence (mean)” value in assay [1] (setting [3]) is given as -1.666. Also, the “Chip Fluorescence (max)” value in assay [2] stood at 2.458.
With TFWTNPQITVTLAEDD [SeqRBMlowT_3250], the “Chip Fluorescence (mean)” value in assay [1] (setting [3]) is listed as 1.296. Also, the “Chip Fluorescence (max)” value in assay [2] came to 2.572.
Taken in the same sequence, the figures for KAYMCPFMQFIDGGRR [SeqRBMlowT_502] were -0.1535 and 2.385.
Take “ASALSPRIEITPSHEL [SeqNFATC1_Alligator_mississippiensis]”: the “Chip Fluorescence (max)” value in assay [1] (setting [4]) was 3.085. In addition, in assay [1] (setting [5]), the “Chip Fluorescence (mean)” value is 0.192.
In the case of HSKSIPKISIQSPVHH [SeqRBMlowT_863], in assay [1] (GST-tagged Cn, max over the chip locations), the “Chip Fluorescence (max)” value is listed as -0.2725. Besides, the “Chip Fluorescence (mean)” value in assay [1] (GST-tagged Cn, mean over the chip locations) is reported as -0.8171.
Take “TFHLNPQYRITLEDPD [SeqCAPN11_Daphnia_magna_3]”: in assay [1] (GST-tagged Cn, max over the spots named in Location on chip), the “Chip Fluorescence (max)” value turned out to be 1.7985. Further, the “Chip Fluorescence (mean)” value in assay [1] (GST-tagged Cn, mean over the spots named in Location on chip) is recorded as 0.6671.
Take “SNSTNPEITITPAELC [SeqRIPOR2_Tarsius_syrichta]”: the “Chip Fluorescence (max)” value in assay [1] (setting [6]) is on record as 7.538. Further, the “Chip Fluorescence (mean)” value in assay [1] (setting [7]) is 1.227.
In the case of QKRYGETFPPVKTGSD [Seqshuffled_1489], the “Chip Fluorescence (max)” value in assay [1] (setting [8]) stood at 1.242. In assay [1] (setting [9]), the “Chip Fluorescence (mean)” value is -0.2303.
As to TFWSNPQYKITLEEPD [SeqRBMlowT_9677], the “Chip Fluorescence (max)” value in assay [1] (setting [4]) is 3.254. In assay [1] (setting [5]), the “Chip Fluorescence (mean)” value came to 0.9673.
On to GVHSCPALSVDRPQNQ [Seqshuffled_9565], for which, in assay [1] (setting [8]), the “Chip Fluorescence (max)” value is on record as 1.31. In addition, the “Chip Fluorescence (mean)” value in assay [1] (setting [9]) is recorded as -0.01046.
For VSLYEDALGLGQFSLS [SeqRBM_4294], the “Chip Fluorescence (max)” value in assay [1] (setting [4]) is 2.638. Besides, in assay [1] (setting [5]), the “Chip Fluorescence (mean)” value turned out to be 0.5735.
As for QSNSTPTITITPPSDA [SeqRBM_9156], in assay [1] (setting [6]), the “Chip Fluorescence (max)” value worked out at 7.93. Moreover, in assay [1] (setting [7]), the “Chip Fluorescence (mean)” value is on record as 2.436.
With GGLRSDSVTMIDQGAY [SeqRBM_2699], the “Chip Fluorescence (max)” value in assay [1] (setting [4]) is listed as 2.739. For the same sequence, the “Chip Fluorescence (mean)” value in assay [1] (setting [5]) was 1.043.
Regarding TFWSNPQFTITLAEPD [SeqRBMlowT_8092], in assay [1] (GST-tagged Cn, max over the chip spots listed under Location on chip), the “Chip Fluorescence (max)” value is given as 0.3751. For the same sequence, in assay [1] (GST-tagged Cn, mean over the chip spots listed under Location on chip), the “Chip Fluorescence (mean)” value is on record as -0.8998.
